Results from PubChem BioAssay AID248 (DTP/NCI, 2004).
Values joined by “and” are separate entries in the source; they are usually repeats but may differ in a detail not shown here. Equal entries are not always repeated. Inconclusive results and toxic doses are left out.

Test system: L1210 leukemia ip in BDF1 mice, survival T/C
Test: NCI In Vivo Anticancer Drug Screen. Data for tumor model L1210 Leukemia (intraperitoneal) in B6D2F1 (BDF1) mice
Details: endpoint: mean survival time, higher = longer survival
Procedure, shortened: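 Tumor was transplanted into mice, which were then dosed with test compound or vehicle alone. Survival was recorded for each group, and the treated figure was expressed relative to the control figure.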

[1] = dose: 100.0 mg/kg/injection, schedule: Q04DX002 (ip), vehicle: saline with Tween-80
[2] = dose: 200.0 mg/kg/injection, schedule: Q04DX002 (ip), vehicle: saline with Tween-80
[3] = dose: 100.0 mg/kg/injection, schedule: Q04DX002 (ip), vehicle: gum acacia
[4] = dose: 100.0 mg/kg/injection, schedule: Q04DX003 (ip), vehicle: saline with Tween-80
[5] = dose: 200.0 mg/kg/injection, schedule: Q04DX003 (ip), vehicle: saline with Tween-80
[6] = dose: 200.0 mg/kg/injection, schedule: Q01DX001 (ip), vehicle: carboxymethylcellulose (CMC)
[7] = dose: 400.0 mg/kg/injection, schedule: Q01DX001 (ip), vehicle: carboxymethylcellulose (CMC)
[8] = dose: 100.0 mg/kg/injection, schedule: Q04DX003 (ip), vehicle: saline
[9] = dose: 200.0 mg/kg/injection, schedule: Q04DX003 (ip), vehicle: saline
[10] = dose: 400.0 mg/kg/injection, schedule: Q04DX003 (ip), vehicle: saline
[11] = dose: 100.0 mg/kg/injection, schedule: Q04DX002 (ip), vehicle: Klucel (hydroxypropylcellulose) (HPC)
[12] = dose: 200.0 mg/kg/injection, schedule: Q04DX002 (ip), vehicle: Klucel (hydroxypropylcellulose) (HPC)
[13] = dose: 400.0 mg/kg/injection, schedule: Q04DX003 (ip), vehicle: saline with Tween-80

Question: With `CCCC=C(CCCC)CCCC` as the molecule, how does the T/C [1] read?
Answer: 87 % of control

Question: What about the T/C [2] of the same molecule?
Answer: 94 % of control

Question: With `CC(=O)n1c2ccccc2c2ccccc21` as the molecule, how does the T/C [3] read?
Answer: 95 % of control

Question: And the T/C (dose: 200.0 mg/kg/injection, schedule: Q04DX002 (ip), vehicle: gum acacia)?
Answer: 88 % of control

Question: What about the T/C (dose: 400.0 mg/kg/injection, schedule: Q04DX002 (ip), vehicle: gum acacia) of the same molecule?
Answer: 100 % of control

Question: `CCOC(=O)C1C(=O)CC(=O)C(C(=O)OCC)C1c1ccc(O)cc1` (stereo unspecified) was tested. Which T/C (dose: 100.0 mg/kg/injection, schedule: Q01DX009 (ip), vehicle: Klucel (hydroxypropylcellulose) (HPC)) did it give?
Answer: 95 % of control

Question: What about the T/C (dose: 100.0 mg/kg/injection, schedule: Q04DX003 (ip), vehicle: Klucel (hydroxypropylcellulose) (HPC)) of the same molecule?
Answer: 97 % of control

Question: And the T/C (dose: 200.0 mg/kg/injection, schedule: Q01DX009 (ip), vehicle: Klucel (hydroxypropylcellulose) (HPC))?
Answer: 98 % of control

Question: What about the T/C (dose: 200.0 mg/kg/injection, schedule: Q04DX003 (ip), vehicle: Klucel (hydroxypropylcellulose) (HPC)) of the same molecule?
Answer: 104 % of control

Question: And the T/C (dose: 400.0 mg/kg/injection, schedule: Q01DX009 (ip), vehicle: Klucel (hydroxypropylcellulose) (HPC))?
Answer: 97 % of control

Question: What about the T/C (dose: 400.0 mg/kg/injection, schedule: Q04DX003 (ip), vehicle: Klucel (hydroxypropylcellulose) (HPC)) of the same molecule?
Answer: 107 % of control

Question: Which T/C (dose: 50.0 mg/kg/injection, schedule: Q01DX001 (ip), vehicle: saline) does the source give for `CC(C)(C)C(O)(C(=O)O)C(C)(C)C` here?
Answer: 110 % of control

Question: And the T/C (dose: 100.0 mg/kg/injection, schedule: Q01DX001 (ip), vehicle: saline)?
Answer: 98 % of control

Question: And the T/C (dose: 200.0 mg/kg/injection, schedule: Q01DX001 (ip), vehicle: saline)?
Answer: 104 % of control

Question: What about the T/C (dose: 400.0 mg/kg/injection, schedule: Q01DX001 (ip), vehicle: saline) of the same molecule?
Answer: 100 % of control

Question: Which results are given for `N#Cc1c(C#N)c(/N=C/c2ccccc2)n(/N=C/c2ccccc2)c1N`?
Answer: T/C (dose: 87.5 mg/kg/injection, schedule: Q04DX003 (ip), vehicle: other): 91 % of control; T/C (dose: 175.0 mg/kg/injection, schedule: Q04DX003 (ip), vehicle: other): 93 % of control; T/C (dose: 350.0 mg/kg/injection, schedule: Q04DX003 (ip), vehicle: other): 95 % of control

Question: What does the source list for `O=C1C(NCc2c(O)ccc3ccccc23)CON1C(c1ccccc1)(c1ccccc1)c1ccccc1` (stereo unspecified)?
Answer: T/C (dose: 75.0 mg/kg/injection, schedule: Q04DX003 (ip), vehicle: saline): 89 % of control; T/C (dose: 300.0 mg/kg/injection, schedule: Q04DX003 (ip), vehicle: saline): 91 % of control

Question: With `OC1(c2cccc3ccccc23)CCCCC1` as the molecule, how does the T/C (dose: 50.0 mg/kg/injection, schedule: Q01DX009 (ip), vehicle: saline with Tween-80) read?
Answer: 100 % of control

Question: And the T/C (dose: 100.0 mg/kg/injection, schedule: Q01DX009 (ip), vehicle: saline with Tween-80)?
Answer: 94 % of control

Question: What about the T/C [4] of the same molecule?
Answer: 94 % of control

Question: And the T/C (dose: 200.0 mg/kg/injection, schedule: Q01DX009 (ip), vehicle: saline with Tween-80)?
Answer: 103 % of control

Question: And the T/C [5]?
Answer: 91 % of control

Question: Which results are given for `O=NN(CCCl)C(=O)NC1CCC(C(=O)O)CC1` (stereo unspecified)?
Answer: T/C (dose: 6.0 mg/kg/injection, schedule: Q01DX001 (ip), vehicle: saline with Tween-80): 168 % of control; T/C (dose: 9.0 mg/kg/injection, schedule: Q01DX001 (ip), vehicle: saline with Tween-80): 195 % of control and 215 % of control; T/C (dose: 13.0 mg/kg/injection, schedule: Q01DX001 (ip), vehicle: saline with Tween-80): 275 % of control and 154 % of control and 260 % of control; T/C (dose: 20.0 mg/kg/injection, schedule: Q01DX001 (ip), vehicle: saline with Tween-80): 291 % of control and 409 % of control; T/C (dose: 30.0 mg/kg/injection, schedule: Q01DX001 (ip), vehicle: saline with Tween-80): 310 % of control; T/C (dose: 45.0 mg/kg/injection, schedule: Q01DX001 (ip), vehicle: saline with Tween-80): 544 % of control; T/C (dose: 46.0 mg/kg/injection, schedule: Q01DX001 (ip), vehicle: saline with Tween-80): 311 % of control and 191 % of control; T/C (dose: 67.5 mg/kg/injection, schedule: Q01DX001 (ip), vehicle: saline with Tween-80): 525 % of control; T/C (dose: 93.0 mg/kg/injection, schedule: Q01DX001 (ip), vehicle: saline with Tween-80): 209 % of control and 101 % of control; T/C (dose: 139.0 mg/kg/injection, schedule: Q01DX001 (ip), vehicle: saline with Tween-80): 91 % of control

Question: `CCOc1ccc(/C=N\NC(=O)c2ccco2)cc1OCC` was tested. Which T/C (dose: 100.0 mg/kg/injection, schedule: Q01DX001 (ip), vehicle: carboxymethylcellulose (CMC)) did it give?
Answer: 93 % of control

Question: And the T/C [6]?
Answer: 95 % of control

Question: What about the T/C [7] of the same molecule?
Answer: 97 % of control

Question: How did the T/C (dose: 50.0 mg/kg/injection, schedule: Q01DX009 (ip), vehicle: other) turn out when `Cc1nc(C)c2c(c1C)-c1ccccc1C2=O` was run?
Answer: 104 % of control

Question: And the T/C (dose: 50.0 mg/kg/injection, schedule: Q01DX009 (ip), vehicle: saline + alcohol)?
Answer: 108 % of control

Question: And the T/C (dose: 100.0 mg/kg/injection, schedule: Q01DX009 (ip), vehicle: other)?
Answer: 100 % of control

Question: What about the T/C (dose: 100.0 mg/kg/injection, schedule: Q01DX009 (ip), vehicle: saline + alcohol) of the same molecule?
Answer: 106 % of control

Question: What about the T/C [8] of the same molecule?
Answer: 102 % of control

Question: And the T/C (dose: 200.0 mg/kg/injection, schedule: Q01DX009 (ip), vehicle: other)?
Answer: 100 % of control

Question: What about the T/C (dose: 200.0 mg/kg/injection, schedule: Q01DX009 (ip), vehicle: saline + alcohol) of the same molecule?
Answer: 108 % of control

Question: And the T/C [9]?
Answer: 101 % of control

Question: What about the T/C (dose: 400.0 mg/kg/injection, schedule: Q01DX009 (ip), vehicle: other) of the same molecule?
Answer: 107 % of control

Question: And the T/C (dose: 400.0 mg/kg/injection, schedule: Q01DX009 (ip), vehicle: saline + alcohol)?
Answer: 98 % of control

Question: What about the T/C [10] of the same molecule?
Answer: 107 % of control

Question: What about the T/C (dose: 500.0 mg/kg/injection, schedule: Q01DX009 (ip), vehicle: other) of the same molecule?
Answer: 95 % of control

Question: What does the source list for `CCCC/C(COC)=N\N=C(\CCOC)COC`?
Answer: T/C [6]: 94 % of control; T/C [7]: 94 % of control

Question: For `CC(=O)Nc1cccc(Cl)c1F`, which T/C [11] is on record?
Answer: 100 % of control

Question: And the T/C [12]?
Answer: 93 % of control

Question: And the T/C (dose: 400.0 mg/kg/injection, schedule: Q04DX002 (ip), vehicle: Klucel (hydroxypropylcellulose) (HPC))?
Answer: 107 % of control

Question: For `C=CCNC(=S)NNC(=S)NNc1ccccc1`, which T/C (dose: 100.0 mg/kg/injection, schedule: Q01DX009 (ip), vehicle: acetone) is on record?
Answer: 98 % of control

Question: What about the T/C [4] of the same molecule?
Answer: 118 % of control

Question: What about the T/C (dose: 200.0 mg/kg/injection, schedule: Q01DX009 (ip), vehicle: acetone) of the same molecule?
Answer: 90 % of control

Question: What about the T/C [5] of the same molecule?
Answer: 93 % of control

Question: What about the T/C [13] of the same molecule?
Answer: 96 % of control

Question: Which results are given for `COC(=O)C(=O)OC(=O)C(=O)OC`?
Answer: T/C (dose: 25.0 mg/kg/injection, schedule: Q04DX003 (ip), vehicle: saline): 104 % of control; T/C (dose: 50.0 mg/kg/injection, schedule: Q04DX003 (ip), vehicle: saline): 120 % of control; T/C [8]: 92 % of control

Question: How did the T/C [4] turn out when `O=c1[nH]c(=O)n(Cc2ccccc2)cc1Cc1cccc(OCc2ccccc2)c1` was run?
Answer: 97 % of control

Question: And the T/C [5]?
Answer: 96 % of control

Question: What about the T/C [13] of the same molecule?
Answer: 97 % of control

Question: Which T/C (dose: 100.0 mg/kg/injection, schedule: Q01DX001 (ip), vehicle: Klucel (hydroxypropylcellulose) (HPC)) does the source give for `Nc1ccccc1-c1nc(N)c2ccccc2n1` here?
Answer: 102 % of control

Question: And the T/C (dose: 200.0 mg/kg/injection, schedule: Q01DX001 (ip), vehicle: Klucel (hydroxypropylcellulose) (HPC))?
Answer: 102 % of control

Question: What about the T/C (dose: 400.0 mg/kg/injection, schedule: Q01DX001 (ip), vehicle: Klucel (hydroxypropylcellulose) (HPC)) of the same molecule?
Answer: 108 % of control

Question: For `COC(C)CCC(=O)O.[Ag]` (stereo unspecified), which T/C (dose: 6.25 mg/kg/injection, schedule: Q01DX009 (ip), vehicle: saline with Tween-80) is on record?
Answer: 95 % of control

Question: What about the T/C (dose: 12.5 mg/kg/injection, schedule: Q01DX009 (ip), vehicle: saline with Tween-80) of the same molecule?
Answer: 91 % of control

Question: And the T/C (dose: 12.5 mg/kg/injection, schedule: Q04DX003 (ip), vehicle: saline with Tween-80)?
Answer: 91 % of control

Question: What about the T/C (dose: 25.0 mg/kg/injection, schedule: Q01DX009 (ip), vehicle: saline with Tween-80) of the same molecule?
Answer: 95 % of control

Question: And the T/C (dose: 25.0 mg/kg/injection, schedule: Q04DX003 (ip), vehicle: saline with Tween-80)?
Answer: 96 % of control

Question: Which T/C [8] does the source give for `O=C1CCC(=O)N1C1c2ccccc2Oc2ccccc21` here?
Answer: 95 % of control

Question: And the T/C [9]?
Answer: 95 % of control

Question: What about the T/C [10] of the same molecule?
Answer: 90 % of control

Question: Which results are given for `C[CH2][Ge]([CH2]C)[CH2]C.C[CH2][Ge]([CH2]C)[CH2]C.C[CH2][Ge]([CH2]C)[O][Ge]([CH2]C)[CH2]C`?
Answer: T/C [1]: 106 % of control; T/C [2]: 106 % of control; T/C (dose: 400.0 mg/kg/injection, schedule: Q04DX002 (ip), vehicle: saline with Tween-80): 116 % of control

Question: What does the source list for `CCCCCCCCC(N)C(=O)O` (stereo unspecified)?
Answer: T/C (dose: 25.0 mg/kg/injection, schedule: Q04DX002 (ip), vehicle: gum acacia): 107 % of control; T/C (dose: 50.0 mg/kg/injection, schedule: Q04DX002 (ip), vehicle: Klucel (hydroxypropylcellulose) (HPC)): 91 % of control; T/C (dose: 50.0 mg/kg/injection, schedule: Q04DX002 (ip), vehicle: gum acacia): 95 % of control; T/C [11]: 98 % of control; T/C [3]: 114 % of control; T/C [12]: 95 % of control
